Values quoted from earlier work, collected in US7855206B2, “Tricyclic heteroaromatic compounds as dipeptidyl peptidase-IV inhibitors for the treatment or prevention of diabetes” (Merck Sharp & Dohme Corp., priority 2006, dated 2010).

Experiments:
hematopoiesis in mouse = conditions: cyclophosphamide-induced neutropenia
[1] = tested on: GRF degradation in plasma
[2] = tested on: cardiac allograft in rats; conditions: doubled from day 7

## CC(C)[C@H](N)C(=O)N1CCC[C@H]1B(O)O [Val-Boro-Pro]
Hematopoiesis in mouse
  effect on hematopoiesis: stimulated hematopoiesis

## CC[C@H](C)[C@H](N)C(=O)N1CCC[C@H]1C(=O)N[C@H](C(=O)O)[C@@H](C)CC [diprotin A]
[1]
  effect on degradation of GRF to GRF[3-44]: prevented

## CC(C)N1CCC(c2ccccc2)(c2ccccc2)CC1 [Prodipine, Pro-Pro-diphenyl-phosphonate]
[2]
  cardiac allograft survival: 14 day
